In patent publication US20250290117A1, “MOLECULAR PHENOTYPIC ANTIMICROBIAL SUSCEPTIBILITY TESTING” (priority 2024, published 2025):

How the values were obtained:
Escherichia coli = test: Molecular phenotypic antimicrobial susceptibility test (extraction or DNA purification prior to PCR); type: cell-based
In short: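 Patient specimens in boric acid preservative were culture-incubated, diluted to 0.5 McFarland and exposed for 12-16 hours to antimicrobials in broth at their sensitivity breakpoint concentration(s), with a no-drug well for pathogen load. Growth was then measured by semi-quantitative PCR, either after DNA purification (e.g. magnetic beads) or directly after lysis-buffer treatment without extraction.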

pathogen of the specimen = test: Molecular phenotypic antimicrobial susceptibility test with direct PCR at various incubation timepoints (Table 7); type: cell-based
In short: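 Specimens with known microbial load are cultured, diluted to 0.5 McFarland using optical density, then exposed to antimicrobials prepared in liquid culture media (e.g., Muller Hinton Broth) at their established sensitivity breakpoint concentrations. After incubation, samples are lysed with buffer in a thermal cycler and analyzed by direct semi-quantitative PCR, with antimicrobial-free control wells serving as the susceptibility threshold.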

[1] = E. coli isolate 1, Ct at control (average) 21.238
[2] = E. coli isolate 1, at sensitive breakpoint
[3] = E. coli isolate 2, Ct at control (average) 21.270
[4] = E. coli isolate 2, at sensitive breakpoint
[5] = E. coli isolate 3, Ct at control (average) 22.0995
[6] = E. coli isolate 3, at sensitive breakpoint
[7] = E. coli isolate 1189, antibiotic incubation time 4 hours
[8] = E. coli isolate 1189, antibiotic incubation time 4 hours, control average Ct […]
[9] = E. coli isolate 1189, antibiotic incubation time 6 hours
[10] = E. coli isolate 1189, antibiotic incubation time 6 hours, control average Ct 16.992
[11] = E. coli isolate 1189, antibiotic incubation time 8 hours
[12] = E. coli isolate 1189, antibiotic incubation time 8 hours, control average Ct […]
[13] = E. coli isolate 1189, antibiotic incubation time 10 hours
[14] = E. coli isolate 1189, antibiotic incubation time 10 hours, control average Ct 15.995
[15] = E. coli isolate 1189, antibiotic incubation time 12 hours
[16] = E. coli isolate 1189, antibiotic incubation time 12 hours, control average Ct 15.495
[17] = E. coli isolate 1189, antibiotic incubation time 14 hours
[18] = E. coli isolate 1189, antibiotic incubation time 14 hours, control average Ct 15.826
[19] = E. coli isolate 1189, antibiotic incubation time 16 hours
[20] = E. coli isolate 1189, antibiotic incubation time 16 hours, control average Ct 14.880
[21] = E. coli isolate 4, Ct at control (average) 17.5733
[22] = E. coli isolate 4, at sensitive breakpoint
[23] = E. coli isolate 5, Ct at control (average) 21.0933
[24] = E. coli isolate 5, at sensitive breakpoint

## C[C@@H](O)[C@H]1C(=O)N2C(C(=O)O)=C(S[C@@H]3CN[C@H](C(=O)N(C)C)C3)[C@H](C)[C@H]12 [Meropenem]
Escherichia coli; [1]
  Ct at Sensitive Breakpoint: 33.626
Escherichia coli; [2]
  Molecular Antimicrobial Susceptibility Result: Sensitive (Antimicrobial wells with pathogen load detected below the control wells (typically >2 cycle thresholds later) may be reported as Sensitive)
Escherichia coli; [3]
  Ct at Sensitive Breakpoint: 29.525
Escherichia coli; [4]
  Molecular Antimicrobial Susceptibility Result: Sensitive (Antimicrobial wells with pathogen load detected below the control wells (typically >2 cycle thresholds later) may be reported as Sensitive)
Escherichia coli; [5]
  Ct at Sensitive Breakpoint: 23.588
Escherichia coli; [6]
  Molecular Antimicrobial Susceptibility Result: Sensitive (Antimicrobial wells with pathogen load detected below the control wells (typically >2 cycle thresholds later) may be reported as Sensitive)
Pathogen of the specimen; [7]
  Molecular Antimicrobial Susceptibility Result: Sensitive (Antimicrobial wells with pathogen load detected below the control wells (typically >2 cycle thresholds later) may be reported as Sensitive)
Pathogen of the specimen; [8]
  Ct at Sensitive Breakpoint: 22.751
Pathogen of the specimen; [9]
  Molecular Antimicrobial Susceptibility Result: Sensitive (Antimicrobial wells with pathogen load detected below the control wells (typically >2 cycle thresholds later) may be reported as Sensitive)
Pathogen of the specimen; [10]
  Ct at Sensitive Breakpoint: 22.884
Pathogen of the specimen; [11]
  Molecular Antimicrobial Susceptibility Result: Sensitive (Antimicrobial wells with pathogen load detected below the control wells (typically >2 cycle thresholds later) may be reported as Sensitive)
Pathogen of the specimen; [12]
  Ct at Sensitive Breakpoint: 23.187
Pathogen of the specimen; [13]
  Molecular Antimicrobial Susceptibility Result: Sensitive (Antimicrobial wells with pathogen load detected below the control wells (typically >2 cycle thresholds later) may be reported as Sensitive)
Pathogen of the specimen; [14]
  Ct at Sensitive Breakpoint: 23.901
Pathogen of the specimen; [15]
  Molecular Antimicrobial Susceptibility Result: Sensitive (Antimicrobial wells with pathogen load detected below the control wells (typically >2 cycle thresholds later) may be reported as Sensitive)
Pathogen of the specimen; [16]
  Ct at Sensitive Breakpoint: 26.014
Pathogen of the specimen; [17]
  Molecular Antimicrobial Susceptibility Result: Sensitive (Antimicrobial wells with pathogen load detected below the control wells (typically >2 cycle thresholds later) may be reported as Sensitive)
Pathogen of the specimen; [18]
  Ct at Sensitive Breakpoint: 26.211
Pathogen of the specimen; [19]
  Molecular Antimicrobial Susceptibility Result: Sensitive (Antimicrobial wells with pathogen load detected below the control wells (typically >2 cycle thresholds later) may be reported as Sensitive)
Pathogen of the specimen; [20]
  Ct at Sensitive Breakpoint: 27.457

## O=C1CN(/N=C/c2ccc([N+](=O)[O-])o2)C(=O)N1 [Nitrofurantoin]
Escherichia coli; [1]
  Ct at Sensitive Breakpoint: 35.690
Escherichia coli; [2]
  Molecular Antimicrobial Susceptibility Result: Sensitive (Antimicrobial wells with pathogen load detected below the control wells (typically >2 cycle thresholds later) may be reported as Sensitive)
Escherichia coli; [3]
  Ct at Sensitive Breakpoint: 30.495
Escherichia coli; [4]
  Molecular Antimicrobial Susceptibility Result: Sensitive (Antimicrobial wells with pathogen load detected below the control wells (typically >2 cycle thresholds later) may be reported as Sensitive)
Escherichia coli; [5]
  Ct at Sensitive Breakpoint: 21.722
Escherichia coli; [6]
  Molecular Antimicrobial Susceptibility Result: Sensitive (Antimicrobial wells with pathogen load detected below the control wells (typically >2 cycle thresholds later) may be reported as Sensitive)
Escherichia coli; [21]
  Ct at Sensitive Breakpoint: 32.06
Escherichia coli; [22]
  Molecular Antimicrobial Susceptibility Result: Sensitive (Antimicrobial wells with pathogen load detected below the control wells (typically >2 cycle thresholds later) may be reported as Sensitive)
Escherichia coli; [23]
  Ct at Sensitive Breakpoint: 33.53
Escherichia coli; [24]
  Molecular Antimicrobial Susceptibility Result: Sensitive (Antimicrobial wells with pathogen load detected below the control wells (typically >2 cycle thresholds later) may be reported as Sensitive)
Pathogen of the specimen; [7]
  Molecular Antimicrobial Susceptibility Result: Sensitive (Antimicrobial wells with pathogen load detected below the control wells (typically >2 cycle thresholds later) may be reported as Sensitive)
Pathogen of the specimen; [8]
  Ct at Sensitive Breakpoint: 27.265
Pathogen of the specimen; [9]
  Molecular Antimicrobial Susceptibility Result: Sensitive (Antimicrobial wells with pathogen load detected below the control wells (typically >2 cycle thresholds later) may be reported as Sensitive)
Pathogen of the specimen; [10]
  Ct at Sensitive Breakpoint: 27.430
Pathogen of the specimen; [11]
  Molecular Antimicrobial Susceptibility Result: Sensitive (Antimicrobial wells with pathogen load detected below the control wells (typically >2 cycle thresholds later) may be reported as Sensitive)
Pathogen of the specimen; [12]
  Ct at Sensitive Breakpoint: 28.823
Pathogen of the specimen; [13]
  Molecular Antimicrobial Susceptibility Result: Sensitive (Antimicrobial wells with pathogen load detected below the control wells (typically >2 cycle thresholds later) may be reported as Sensitive)
Pathogen of the specimen; [14]
  Ct at Sensitive Breakpoint: 27.170
Pathogen of the specimen; [15]
  Molecular Antimicrobial Susceptibility Result: Sensitive (Antimicrobial wells with pathogen load detected below the control wells (typically >2 cycle thresholds later) may be reported as Sensitive)
Pathogen of the specimen; [16]
  Ct at Sensitive Breakpoint: 26.777
Pathogen of the specimen; [17]
  Molecular Antimicrobial Susceptibility Result: Sensitive (Antimicrobial wells with pathogen load detected below the control wells (typically >2 cycle thresholds later) may be reported as Sensitive)
Pathogen of the specimen; [18]
  Ct at Sensitive Breakpoint: 26.788
Pathogen of the specimen; [19]
  Molecular Antimicrobial Susceptibility Result: Sensitive (Antimicrobial wells with pathogen load detected below the control wells (typically >2 cycle thresholds later) may be reported as Sensitive)
Pathogen of the specimen; [20]
  Ct at Sensitive Breakpoint: 24.548

## Gentamicin
Escherichia coli; [1]
  Ct at Sensitive Breakpoint: 22.585
Escherichia coli; [2]
  Molecular Antimicrobial Susceptibility Result: Resistant
Escherichia coli; [3]
  Ct at Sensitive Breakpoint: 24.165
Escherichia coli; [4]
  Molecular Antimicrobial Susceptibility Result: Sensitive (Antimicrobial wells with pathogen load detected below the control wells (typically >2 cycle thresholds later) may be reported as Sensitive)
Escherichia coli; [5]
  Ct at Sensitive Breakpoint: 25.112
Escherichia coli; [6]
  Molecular Antimicrobial Susceptibility Result: Sensitive (Antimicrobial wells with pathogen load detected below the control wells (typically >2 cycle thresholds later) may be reported as Sensitive)
Escherichia coli; [21]
  Ct at Sensitive Breakpoint: 22.64
Escherichia coli; [22]
  Molecular Antimicrobial Susceptibility Result: Sensitive (Antimicrobial wells with pathogen load detected below the control wells (typically >2 cycle thresholds later) may be reported as Sensitive)
Escherichia coli; [23]
  Ct at Sensitive Breakpoint: 25.77
Escherichia coli; [24]
  Molecular Antimicrobial Susceptibility Result: Sensitive (Antimicrobial wells with pathogen load detected below the control wells (typically >2 cycle thresholds later) may be reported as Sensitive)
Pathogen of the specimen; [7]
  Molecular Antimicrobial Susceptibility Result: Sensitive (Antimicrobial wells with pathogen load detected below the control wells (typically >2 cycle thresholds later) may be reported as Sensitive)
Pathogen of the specimen; [8]
  Ct at Sensitive Breakpoint: 24.224
Pathogen of the specimen; [9]
  Molecular Antimicrobial Susceptibility Result: Sensitive (Antimicrobial wells with pathogen load detected below the control wells (typically >2 cycle thresholds later) may be reported as Sensitive)
Pathogen of the specimen; [10]
  Ct at Sensitive Breakpoint: 25.270
Pathogen of the specimen; [11]
  Molecular Antimicrobial Susceptibility Result: Sensitive (Antimicrobial wells with pathogen load detected below the control wells (typically >2 cycle thresholds later) may be reported as Sensitive)
Pathogen of the specimen; [12]
  Ct at Sensitive Breakpoint: 25.454
Pathogen of the specimen; [13]
  Molecular Antimicrobial Susceptibility Result: Sensitive (Antimicrobial wells with pathogen load detected below the control wells (typically >2 cycle thresholds later) may be reported as Sensitive)
Pathogen of the specimen; [14]
  Ct at Sensitive Breakpoint: 25.318
Pathogen of the specimen; [15]
  Molecular Antimicrobial Susceptibility Result: Sensitive (Antimicrobial wells with pathogen load detected below the control wells (typically >2 cycle thresholds later) may be reported as Sensitive)
Pathogen of the specimen; [16]
  Ct at Sensitive Breakpoint: 25.018
Pathogen of the specimen; [17]
  Molecular Antimicrobial Susceptibility Result: Sensitive (Antimicrobial wells with pathogen load detected below the control wells (typically >2 cycle thresholds later) may be reported as Sensitive)
Pathogen of the specimen; [18]
  Ct at Sensitive Breakpoint: 24.069
Pathogen of the specimen; [19]
  Molecular Antimicrobial Susceptibility Result: Sensitive (Antimicrobial wells with pathogen load detected below the control wells (typically >2 cycle thresholds later) may be reported as Sensitive)
Pathogen of the specimen; [20]
  Ct at Sensitive Breakpoint: 24.816
